Test results reported in patent publication US20230243825A1, “ADAPTIVE NANOPARTICLE PLATFORMS FOR HIGH THROUGHPUT EXPANSION AND DETECTION OF ANTIGEN-SPECIFIC T CELLS” (The Johns Hopkins University, priority 2020, published 2023).

Experiments:
[1] = tested on: B16-OVA tumor cells; assay: IFN-γ pre-incubation of tumor cells; type: cell-based; conditions: overnight pre-incubation
Experimental: Whether this same approach can be expanded to other tumor models was then examined by applying it to B16-OVA. Initial results were inconclusive, so an attempt to increase the amount of recoverable peptide was made by pre-incubating tumor cells overnight with IFN-γ to upregulate MHC I on their surface. […] The calculated yield was approximately […] of peptide per 1×10^4 tumor cells, still roughly 0.00002% (w/w) of the eluted 100 micrograms of peptide.

[2] = tested on: SIY and VDW-specific CD8+ T cells; assay: In vivo peptide vaccination with poly I:C, dimer staining; set-up: species or system mouse; conditions: Day 0 and Day 7, harvest Day 15
Description: On Day 15, mouse spleens and lymph nodes were harvested for dimer and particle staining, following similar protocols described above.

Substance	MHC I expression on tumor cells [1]	peptide-specific CD8+ T cells, dimer staining pre- vs post-vaccination [2]
IFNγ	drastically increased	–
SIYRYYGL	–	significant increases
VDWENVSPEL	–	significant increases
